This is an account of results in the NIST ThermoML archive (doi:10.1021/je5005752).

Values joined by “and” are separate entries in the source; they are usually repeats but may differ in a detail not shown here. Identical values can stand only once. Numbers after ± are expanded uncertainties.

In general, mass density refers to the mass of a sample divided by its volume. The viscosity is the internal friction of a fluid under shear.

The conditions of the first data set: 288.15 K; 101 kPa; Liquid; Vibrating tube method.
For `CC(C)CO` [2-methyl-1-propanol], the mass density is recorded as 805.88 ± 0.19 kg/m3.

Turning to `CC(C)CCO` [3-methylbutan-1-ol], the mass density was 812.29 ± 0.27 kg/m3.

As for `CCCCCCO` [hexan-1-ol], the mass density came out at 822.26 ± 0.27 kg/m3.

For `CCCCO` [butan-1-ol], the mass density is reported as 813.46 ± 0.2 kg/m3.

Staying with this data set, now noted: 293.15 K; 101 kPa; Liquid; Falling or rolling sphere viscometry.
As to `CCCC(=O)OCC` [ethyl butanoate], the viscosity is reported as 0.6808 ± 0.015 mPa·s.

Take `CCCO` [propan-1-ol]: the viscosity was 2.208 ± 0.047 mPa·s.

`CC(C)CO` [2-methyl-1-propanol]: the viscosity worked out at 4.052 ± 0.086 mPa·s.

For `CC(C)CCO` [3-methylbutan-1-ol], the viscosity was 4.288 ± 0.094 mPa·s.

Regarding `CCCCCCO` [hexan-1-ol], the viscosity is given as 5.332 ± 0.12 mPa·s.

Take `CCCCO` [butan-1-ol]: the viscosity is 2.913 ± 0.062 mPa·s.

Staying with this data set, now noted: 293.15 K; 101 kPa; Liquid; Vibrating tube method.
With `CCCC(=O)OCC` [ethyl butanoate], the mass density was found to be 878.9 ± 0.27 kg/m3.

For `CCCO` [propan-1-ol], the mass density was 803.77 ± 0.21 kg/m3.

For the compound `CC(C)CO` [2-methyl-1-propanol], the mass density stood at 802.03 ± 0.19 kg/m3.

Regarding `CC(C)CCO` [3-methylbutan-1-ol], the mass density was 808.58 ± 0.27 kg/m3.

`CCCCCCO` [hexan-1-ol]: the mass density was 818.7 ± 0.27 kg/m3.

For `CCCCO` [butan-1-ol], the mass density was 809.66 ± 0.2 kg/m3.

Still in this data set, the particulars now being: 298.15 K; 101 kPa; Liquid; Falling or rolling sphere viscometry.
For `CCCC(=O)OCC` [ethyl butanoate], the viscosity amounted to 0.643 ± 0.014 mPa·s.

Consider `CCCO` [propan-1-ol], for which the viscosity is listed as 1.95 ± 0.042 mPa·s.

Take `CC(C)CO` [2-methyl-1-propanol]: the viscosity was found to be 3.431 ± 0.073 mPa·s.

Turning to `CC(C)CCO` [3-methylbutan-1-ol], the viscosity was determined as 3.671 ± 0.08 mPa·s.

Regarding `CCCCCCO` [hexan-1-ol], the viscosity is recorded as 4.538 ± 0.099 mPa·s.

`CCCCO` [butan-1-ol]: the viscosity came out at 2.563 ± 0.055 mPa·s.

Staying with this data set, now noted: 298.15 K; 101 kPa; Liquid; Vibrating tube method.
`CCCC(=O)OCC` [ethyl butanoate]: the mass density is recorded as 873.62 ± 0.27 kg/m3.

For `CCCO` [propan-1-ol], the mass density turned out to be 799.76 ± 0.21 kg/m3.

For `CC(C)CO` [2-methyl-1-propanol], the mass density came to 798.16 ± 0.2 kg/m3.

With `CC(C)CCO` [3-methylbutan-1-ol], the mass density is given as 804.84 ± 0.27 kg/m3.

Turning to `CCCCCCO` [hexan-1-ol], the mass density came to 815.12 ± 0.27 kg/m3.

Take `CCCCO` [butan-1-ol]: the mass density worked out at 805.84 ± 0.2 kg/m3.

Staying with this data set, now noted: 303.15 K; 101 kPa; Liquid; Falling or rolling sphere viscometry.
For `CCCC(=O)OCC` [ethyl butanoate], the viscosity was 0.6072 ± 0.013 mPa·s.

On to `CCCO` [propan-1-ol], for which the viscosity came to 1.727 ± 0.037 mPa·s.

As for `CC(C)CO` [2-methyl-1-propanol], the viscosity is recorded as 2.923 ± 0.062 mPa·s.

Turning to `CC(C)CCO` [3-methylbutan-1-ol], the viscosity is reported as 3.155 ± 0.069 mPa·s.

In the case of `CCCCCCO` [hexan-1-ol], the viscosity came out at 3.896 ± 0.085 mPa·s.

Regarding `CCCCO` [butan-1-ol], the viscosity is reported as 2.257 ± 0.048 mPa·s.

Still in this data set, the particulars now being: 303.15 K; 101 kPa; Liquid; Vibrating tube method.
In the case of `CCCC(=O)OCC` [ethyl butanoate], the mass density came to 868.33 ± 0.27 kg/m3.

`CCCO` [propan-1-ol]: the mass density came out at 795.72 ± 0.21 kg/m3.

For `CC(C)CO` [2-methyl-1-propanol], the mass density is recorded as 794.25 ± 0.2 kg/m3.

Consider `CC(C)CCO` [3-methylbutan-1-ol], for which the mass density worked out at 801.09 ± 0.27 kg/m3.

Consider `CCCCCCO` [hexan-1-ol], for which the mass density is 811.52 ± 0.27 kg/m3.

With `CCCCO` [butan-1-ol], the mass density was 801.99 ± 0.21 kg/m3.

The same data set, now with this note: 308.15 K; 101 kPa; Liquid; Falling or rolling sphere viscometry.
As to `CCCC(=O)OCC` [ethyl butanoate], the viscosity is on record as 0.5736 ± 0.013 mPa·s.

Take `CCCO` [propan-1-ol]: the viscosity came out at 1.542 ± 0.033 mPa·s.

Regarding `CC(C)CO` [2-methyl-1-propanol], the viscosity came out at 2.505 ± 0.053 mPa·s.

For `CC(C)CCO` [3-methylbutan-1-ol], the viscosity was 2.73 ± 0.06 mPa·s.

With `CCCCCCO` [hexan-1-ol], the viscosity came out at 3.361 ± 0.073 mPa·s.

Turning to `CCCCO` [butan-1-ol], the viscosity was 1.994 ± 0.043 mPa·s.

The same data set, now with this note: 308.15 K; 101 kPa; Liquid; Vibrating tube method.
As for `CCCC(=O)OCC` [ethyl butanoate], the mass density is 863.02 ± 0.27 kg/m3.

Turning to `CCCO` [propan-1-ol], the mass density was 791.64 ± 0.21 kg/m3.

As for `CC(C)CO` [2-methyl-1-propanol], the mass density was 790.31 ± 0.2 kg/m3.

With `CC(C)CCO` [3-methylbutan-1-ol], the mass density was determined as 797.31 ± 0.27 kg/m3.

Consider `CCCCCCO` [hexan-1-ol], for which the mass density is given as 807.89 ± 0.27 kg/m3.

As for `CCCCO` [butan-1-ol], the mass density is given as 798.12 ± 0.21 kg/m3.

The same data set, now with this note: 313.15 K; 101 kPa; Liquid; Falling or rolling sphere viscometry.
Turning to `CCCC(=O)OCC` [ethyl butanoate], the viscosity was 0.5424 ± 0.012 mPa·s and 0.5425 ± 0.012 mPa·s.

Consider `CCCO` [propan-1-ol], for which the viscosity was found to be 1.378 ± 0.029 mPa·s.

On to `CC(C)CO` [2-methyl-1-propanol], for which the viscosity is listed as 2.161 ± 0.046 mPa·s.

`CC(C)CCO` [3-methylbutan-1-ol]: the viscosity worked out at 2.375 ± 0.052 mPa·s.

For the compound `CCCCCCO` [hexan-1-ol], the viscosity was found to be 2.917 ± 0.064 mPa·s.

For `CCCCO` [butan-1-ol], the viscosity came to 1.779 ± 0.038 mPa·s.

Still in this data set, the particulars now being: 313.15 K; 101 kPa; Liquid; Vibrating tube method.
As for `CCCC(=O)OCC` [ethyl butanoate], the mass density turned out to be 857.7 ± 0.27 kg/m3.

As to `CCCO` [propan-1-ol], the mass density worked out at 787.52 ± 0.21 kg/m3.

As to `CC(C)CO` [2-methyl-1-propanol], the mass density is given as 786.31 ± 0.2 kg/m3.

With `CC(C)CCO` [3-methylbutan-1-ol], the mass density turned out to be 793.51 ± 0.27 kg/m3.

Regarding `CCCCCCO` [hexan-1-ol], the mass density was determined as 804.25 ± 0.27 kg/m3.

On to `CCCCO` [butan-1-ol], for which the mass density was 794.22 ± 0.21 kg/m3.

The data set is the same for the next values; noted with them: 318.15 K; 101 kPa; Liquid; Falling or rolling sphere viscometry.
As to `CCCC(=O)OCC` [ethyl butanoate], the viscosity was 0.5132 ± 0.011 mPa·s.

On to `CCCO` [propan-1-ol], for which the viscosity came out at 1.236 ± 0.026 mPa·s.

For the compound `CC(C)CO` [2-methyl-1-propanol], the viscosity worked out at 1.876 ± 0.04 mPa·s.

On to `CC(C)CCO` [3-methylbutan-1-ol], for which the viscosity came out at 2.076 ± 0.045 mPa·s.

On to `CCCCCCO` [hexan-1-ol], for which the viscosity amounted to 2.546 ± 0.056 mPa·s.

As to `CCCCO` [butan-1-ol], the viscosity is 1.576 ± 0.034 mPa·s.

The data set is the same for the next values; noted with them: 318.15 K; 101 kPa; Liquid; Vibrating tube method.
Consider `CCCC(=O)OCC` [ethyl butanoate], for which the mass density worked out at 852.36 ± 0.27 kg/m3.

On to `CCCO` [propan-1-ol], for which the mass density is given as 783.36 ± 0.21 kg/m3.

Consider `CC(C)CO` [2-methyl-1-propanol], for which the mass density was found to be 782.26 ± 0.2 kg/m3.

Regarding `CC(C)CCO` [3-methylbutan-1-ol], the mass density was found to be 789.67 ± 0.27 kg/m3.

For the compound `CCCCCCO` [hexan-1-ol], the mass density is on record as 800.56 ± 0.27 kg/m3.

Regarding `CCCCO` [butan-1-ol], the mass density is given as 790.28 ± 0.21 kg/m3.

Staying with this data set, now noted: 323.15 K; 101 kPa; Liquid; Falling or rolling sphere viscometry.
Take `CCCC(=O)OCC` [ethyl butanoate]: the viscosity is 0.487 ± 0.011 mPa·s.

For the compound `CCCO` [propan-1-ol], the viscosity was 1.124 ± 0.024 mPa·s.

Regarding `CC(C)CO` [2-methyl-1-propanol], the viscosity is 1.652 ± 0.035 mPa·s.

`CC(C)CCO` [3-methylbutan-1-ol]: the viscosity is recorded as 1.841 ± 0.04 mPa·s.

With `CCCCCCO` [hexan-1-ol], the viscosity is reported as 2.241 ± 0.049 mPa·s.

As for `CCCCO` [butan-1-ol], the viscosity is given as 1.422 ± 0.03 mPa·s.

Still in this data set, the particulars now being: 323.15 K; 101 kPa; Liquid; Vibrating tube method.
`CCCC(=O)OCC` [ethyl butanoate]: the mass density stood at 847 ± 0.27 kg/m3.

For `CCCO` [propan-1-ol], the mass density came out at 779.14 ± 0.21 kg/m3.

`CC(C)CO` [2-methyl-1-propanol]: the mass density is listed as 778.14 ± 0.2 kg/m3.

As for `CC(C)CCO` [3-methylbutan-1-ol], the mass density was determined as 785.79 ± 0.27 kg/m3.

Take `CCCCCCO` [hexan-1-ol]: the mass density stood at 796.85 ± 0.27 kg/m3.

Consider `CCCCO` [butan-1-ol], for which the mass density is given as 786.29 ± 0.21 kg/m3.
